Laboratory results published in paper PMC6274214, “Antimicrobial Activity and Urease Inhibition of Schiff Bases Derived from Isoniazid and Fluorinated Benzaldehydes and of Their Copper(II) Complexes” (Molecules, 2016).

Molecular target: T1, jack bean urease (Canavalia ensiformis, UniProt P07374)
T1 construct: native jack bean urease
Assay: phenol red pH-rise urease assay, […] nm, time from pH […] to […]
Format: biochemical

T1 sequence (P07374 whole entry): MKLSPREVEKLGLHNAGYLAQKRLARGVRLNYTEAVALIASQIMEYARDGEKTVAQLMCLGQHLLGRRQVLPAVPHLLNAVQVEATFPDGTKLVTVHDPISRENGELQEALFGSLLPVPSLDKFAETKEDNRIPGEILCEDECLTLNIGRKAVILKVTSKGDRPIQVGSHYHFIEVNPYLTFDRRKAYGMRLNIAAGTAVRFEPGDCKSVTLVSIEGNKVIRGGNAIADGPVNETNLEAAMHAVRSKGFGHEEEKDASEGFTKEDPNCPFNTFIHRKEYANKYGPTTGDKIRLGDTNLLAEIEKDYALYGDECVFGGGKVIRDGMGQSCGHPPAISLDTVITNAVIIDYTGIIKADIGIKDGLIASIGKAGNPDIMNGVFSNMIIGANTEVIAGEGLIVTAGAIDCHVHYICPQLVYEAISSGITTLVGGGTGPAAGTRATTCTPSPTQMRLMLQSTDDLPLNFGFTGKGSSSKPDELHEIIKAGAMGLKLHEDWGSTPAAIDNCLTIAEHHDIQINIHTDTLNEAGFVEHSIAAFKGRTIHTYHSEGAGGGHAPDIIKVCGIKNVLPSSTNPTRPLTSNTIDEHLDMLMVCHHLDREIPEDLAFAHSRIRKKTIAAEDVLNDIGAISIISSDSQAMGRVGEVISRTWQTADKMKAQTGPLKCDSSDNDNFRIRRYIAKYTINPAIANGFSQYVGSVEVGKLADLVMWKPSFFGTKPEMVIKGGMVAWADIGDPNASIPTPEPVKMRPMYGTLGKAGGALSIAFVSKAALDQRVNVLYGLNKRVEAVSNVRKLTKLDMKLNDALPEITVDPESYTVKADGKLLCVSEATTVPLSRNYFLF

SMILES	IC50
O=C(NN=Cc1ccccc1)c1ccncc1 [L6, N-(benzylidene)pyridine-4-carbohydrazide]	> 500 µM
O=C(NN=Cc1ccc(F)cc1)c1ccncc1 [L3, N-[(4-fluorophenyl)methylidene]pyridine-4-carbohydrazide monohydrate]	> 500 µM
O=C(NN=Cc1cc(F)ccc1O)c1ccncc1 [L4, N-[(5-fluoro-2-hydroxyphenyl)methylidene]pyridine-4-carbohydrazide]	> 500 µM
CC(=O)NO [Acetohydroxamic acid, reference compound]	185 ± 6.2 µM
O=C(NN=Cc1cccc(F)c1O)c1ccncc1 [L5, N-[(3-fluoro-2-hydroxyphenyl)methylidene]pyridine-4-carbohydrazide]	> 500 µM
O=C(NN=Cc1ccccc1C(F)(F)F)c1ccncc1 [L2, N-[[(2-trifluoromethyl)phenyl]methylidene]pyridine-4-carbohydrazide]	> 500 µM
O=C(NN=Cc1ccc(C(F)(F)F)cc1)c1ccncc1 [L1]	> 500 µM
